Where two headings read alike, the source gives them in different places.
Target: T1, human mAChR M1 (Homo sapiens, UniProt P11229)
T1 sequence (P11229 1-460): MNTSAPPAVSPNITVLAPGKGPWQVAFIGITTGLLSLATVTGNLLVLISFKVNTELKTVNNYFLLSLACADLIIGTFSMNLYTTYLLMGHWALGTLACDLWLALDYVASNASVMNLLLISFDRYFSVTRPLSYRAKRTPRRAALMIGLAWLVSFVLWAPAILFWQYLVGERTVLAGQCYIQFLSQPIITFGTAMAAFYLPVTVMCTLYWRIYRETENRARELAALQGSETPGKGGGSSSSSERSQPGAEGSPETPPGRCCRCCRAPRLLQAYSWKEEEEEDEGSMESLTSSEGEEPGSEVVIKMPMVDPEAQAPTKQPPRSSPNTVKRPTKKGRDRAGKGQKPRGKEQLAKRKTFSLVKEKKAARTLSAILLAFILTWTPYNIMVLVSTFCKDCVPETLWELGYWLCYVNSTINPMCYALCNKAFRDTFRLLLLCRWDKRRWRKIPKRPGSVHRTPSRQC
Assay: mAChR M1 cell-based functional assay: calcium mobilization, positive allosteric modulator mode (increase in EC20 acetylcholine response)
Settings: for Emax: read-out: Human M1 Emax (%)
From the text: a. Cell Lines Expressing Muscarinic Acetylcholine Receptors
Chinese hamster ovary (CHO-K1) cells stably expressing rat (r)M1 were purchased from the American Type Culture Collection and cultured according to their indicated protocol. CHO cells stably expressing human (h)M2, hM3, and hM5 were described previously (Levey, et al., 1991); hMi and hM4 cDNAs were purchased from Missouri S&T cDNA Resource; rM4 cDNA was provided by T. I. Bonner (National Institutes of Health, Bethesda, Md.). rM2 and rM3 were cloned from a rat brain cDNA library and sequence verified. hMi, rM2, rM3, hM4, and rM4 cDNAs were used to stably transfect CHO-K1 cells purchased from the American Type Culture Collection using Lipofectamine2000. To make stable rM2, hM2, rM3, hM4, and rM4 cell lines for use in calcium mobilization assays, these cells also were stably transfected with a chimeric G-protein (Gqi5) (provided by B. R. Conklin, University of California, San Francisco) using Lipofectamine 2000. rMi, hMi, rM3, hM3, rM5, and hM5 cells were grown in Ham's F-12 medium containing 10% heat-inactivated fetal bovine serum (FBS), 20 mM HEPES, and 50 μg/mL G418 sulfate. rM2-Gqi5, hM2-Gqi5, and hM4-Gqi5 cells were grown in the same medium also containing 500 μg/mL Hygromycin B. Stable rM4-Gqi5 cells were grown in DMEM containing 10% heat-inactivated FBS, 20 mM HEPES, 400 μg/mL G418 sulfate, and 500 μg/mL Hygromycin B.
b. Cell-Based Functional Assay of Muscarinic Acetylcholine Receptor Activity
For high throughput measurement of agonist-evoked increases in intracellular calcium, CHO-K1 cells stably expressing muscarinic receptors were plated in growth medium lacking G418 and hygromycin at 15,000 cells/20 μL/well in Greiner 384-well black-walled, tissue culture (TC)-treated, clear-bottom plates (VWR). Cells were incubated overnight at 37° C. and 5% CO2. The next day, cells were washed using an ELX 405 (BioTek) with four washes (80 μL) of assay buffer then aspirated to 20 μL. Next, 20 μL of 16 μM Fluo-4/acetoxymethyl ester (Invitrogen, Carlsbad, Calif.) prepared as a 2.3 mM stock in DMSO and mixed in a 1:1 ratio with 10% (w/v) Pluronic F-127 and diluted in assay buffer was added to the wells and the cell plates were incubated for 50 min at 37° C. and 5% CO2. Dye was removed by washing with the ELX 405 (four […], washes of assay buffer) then aspirated to 20 μL. Compound master plates were formatted in an 11 point CRC format (1:3 dilutions) in 100% DMSO with a starting concentration of 10 mM using the BRAVO liquid handler (Agilent). Test compound CRCs were then transferred to daughter plates (240 nL) using the Echo acoustic plate reformatter (Labcyte, Sunnyvale, Calif.) and then diluted into assay buffer (40 μL) to a 2× stock using a Thermo Fisher Combi (Thermo Fisher Scientific, Waltham, Mass.).
Calcium flux was measured using the Functional Drug Screening System (FDSS) 6000 (Hamamatsu Corporation, Tokyo, Japan) as an increase in the fluorescent static ratio. Compounds were applied to cells (20 μL, 2×) using the automated system of the FDSS 6000 at 4 s into the 300 s protocol and the data were collected at 1 Hz. At 144 s into the 300s protocol, 10 μL of an EC20 concentration of the muscarinic receptor agonist acetylcholine was added (5×), followed by the addition of 12 μL an EC80 concentration of acetylcholine at the 230 s time point (5×). Agonist activity was analyzed as a concentration-dependent increase in calcium mobilization upon compound addition. Positive allosteric modulator activity was analyzed as a concentration-dependent increase in the EC20 acetylcholine response. Antagonist activity was analyzed as a concentration-dependent decrease in the EC80 acetylcholine response. Concentration-response curves were generated using a four-parameter logistical equation in XLfit curve fitting software (IDBS, Bridgewater, N.J.) for Excel (Microsoft, Redmond, Wash.) or Prism (GraphPad Software, Inc., San Diego, Calif.).

[1] = Table 1, mAChR M1 cell-based functional assay, PAM mode, species not given, read-out: EC50
[2] = Table 2, human M1, read-out: Human M1 EC50

Row | EC50 [1] [µM] | EC50 [2] [µM] | Emax (Table 2, human M1) [%] | SMILES
1 | > 10 |  |  | Cc1ccc(Oc2cc(C(=O)NCC3CCCO3)nc3ccsc23)cn1 (centres unmarked) [Compound 35, 7-[(6-methyl-3-pyridyl)oxy]-N-(tetrahydrofuran-2-ylmethyl)thieno[3,2-b]pyridine-5-carboxamide]
2 | > 10 |  |  | Cc1ccc(Oc2cc(C(=O)NC3CCCCNC3=O)nc3ccsc23)cn1 (centres unmarked) [Compound 36, 7-[(6-methyl-3-pyridyl)oxy]-N-(2-oxoazepan-3-yl)thieno[3,2-b]pyridine-5-carboxamide]
3 | 3.64 |  |  | Cn1cc2c(-c3cc(F)c(Cc4cc(C(=O)N[C@H]5CCCC[C@@H]5O)nc5ccsc45)c(F)c3)cccc2n1 [Compound 41, 7-[[2,6-difluoro-4-(2-methylindazol-4-yl)phenyl]methyl]-N-[(1S,2S)-2-hydroxycyclohexyl]thieno[3,2-b]pyridine-5-carboxamide]
4 | 0.36 |  |  | Cc1ccc(Cc2cc(C(=O)N[C@H]3CCC[C@@H]3O)nc3ccsc23)cn1 [Compound 42, N-[(1S,2S)-2-hydroxycyclopentyl]-7-[(6-methyl-3-pyridyl)methyl]thieno[3,2-b]pyridine-5-carboxamide]
5 | 1.99 |  |  | Cc1ccc(Cc2cc(C(=O)NC3CCCCC3)nc3ccsc23)cn1 [Compound 43, N-cyclohexyl-7-[(6-methyl-3-pyridyl)methyl]thieno[3,2-b]pyridine-5-carboxamide]
6 | 3.77 |  |  | Cc1ccc(Cc2cc(C(=O)N[C@@H]3CC[C@H]3O)nc3ccsc23)cn1 [Compound 44]
7 | 0.08 |  |  | Cc1ccc(Cc2cc(C(=O)N[C@H]3CCOC[C@@H]3O)nc3ccsc23)cn1 [Compound 45, N-[(3R,4S)-3-hydroxytetrahydropyran-4-yl]-7-[(6-methyl-3-pyridyl)methyl]thieno[3,2-b]pyridine-5-carboxamide]
8 | 0.029 |  |  | Cc1ccc(Cc2cc(C(=O)N[C@H]3COCC[C@@H]3O)nc3ccsc23)cn1 [Compound 46, N-[(3S,4S)-4-hydroxytetrahydropyran-3-yl]-7-[(6-methyl-3-pyridyl)methyl]thieno[3,2-b]pyridine-5-carboxamide]
9 | 0.117 |  |  | Cc1ccc(Cc2cc(C(=O)N[C@H]3CCCCC[C@@H]3O)nc3ccsc23)cn1 [Compound 47, N-[(1S,2S)-2-hydroxycycloheptyl]-7-[(6-methyl-3-pyridyl)methyl]thieno[3,2-b]pyridine-5-carboxamide]
10 | 5.77 |  |  | CO[C@H]1CCCC[C@@H]1NC(=O)c1cc(Cc2ccc(C)nc2)c2sccc2n1 [Compound 48, N-[(1S,2S)-2-methoxycyclohexyl]-7-[(6-methyl-3-pyridyl)methyl]thieno[3,2-b]pyridine-5-carboxamide]
11 | > 10 |  |  | Cc1ccc(Cc2cc(C(=O)NC3CCCC(O)C3)nc3ccsc23)cn1 (centres unmarked) [Compound 49, N-(3-hydroxycyclohexyl)-7-[(6-methyl-3-pyridyl)methyl]thieno[3,2-b]pyridine-5-carboxamide]
12 | 4.96 |  |  | Cc1ccc(Cc2cc(C(=O)NC3CCOCC3)nc3ccsc23)cn1 [Compound 50, 7-[(6-methyl-3-pyridyl)methyl]-N-tetrahydropyran-4-yl-thieno[3,2-b]pyridine-5-carboxamide]
13 |  | 3.61 | 76.9 | Cn1cc(-c2ccc(Cc3cc(C(=O)N[C@H]4CCCC[C@@H]4O)nc4ccsc34)c(F)c2)cn1 [Compound 51, 7-[[2-fluoro-4-(1-methylpyrazol-4-yl)phenyl]methyl]-N-[(1S,2S)-2-hydroxycyclohexyl]thieno[3,2-b]pyridine-5-carboxamide]
14 |  | 1.96 | 76 | Cn1cc(-c2ccc(Cc3cc(C(=O)N[C@H]4CCOC[C@@H]4O)nc4ccsc34)c(F)c2)cn1 [Compound 52, 7-[[2-fluoro-4-(1-methylpyrazol-4-yl)phenyl]methyl]-N-[(3R,4S)-3-hydroxytetrahydropyran-4-yl]thieno[3,2-b]pyridine-5-carboxamide]
15 |  | 3.07 | 79 | Cn1cc(-c2ccc(Cc3cc(C(=O)N[C@H]4COCC[C@@H]4O)nc4ccsc34)c(F)c2)cn1 [Compound 53, 7-[[2-fluoro-4-(1-methylpyrazol-4-yl)phenyl]methyl]-N-[(3S,4S)-4-hydroxytetrahydropyran-3-yl]thieno[3,2-b]pyridine-5-carboxamide]
16 |  | > 10 | 53.1 | Cn1cc(-c2ccc(Cc3cc(C(=O)N[C@H]4CCCCC[C@@H]4O)nc4ccsc34)c(F)c2)cn1 [Compound 54, 7-[[2-fluoro-4-(1-methylpyrazol-4-yl)phenyl]methyl]-N-[(1S,2S)-2-hydroxycycloheptyl]thieno[3,2-b]pyridine-5-carboxamide]
17 |  | 5.7 | 31.1 | Cn1cc(-c2ccc(Cc3cc(C(=O)N[C@@H]4CC[C@H]4O)nc4ccsc34)c(F)c2)cn1 [Compound 55, 7-[[2-fluoro-4-(1-methylpyrazol-4-yl)phenyl]methyl]-N-[(1R,2R)-2-hydroxycyclobutyl]thieno[3,2-b]pyridine-5-carboxamide]
18 |  | 3.26 | 51 | Cn1cc(-c2ccc(Cc3cc(C(=O)N[C@H]4CCC[C@@H]4O)nc4ccsc34)c(F)c2)cn1 [Compound 56, 7-[[2-fluoro-4-(1-methylpyrazol-4-yl)phenyl]methyl]-N-[(1S,2S)-2-hydroxycyclopentyl]thieno[3,2-b]pyridine-5-carboxamide]
19 |  | 2.64 | 80.1 | Cn1cc(-c2cc(F)c(Cc3cc(C(=O)N[C@H]4CCCC[C@@H]4O)nc4ccsc34)c(F)c2)cn1 [Compound 57, 7-[[2,6-difluoro-4-(1-methylpyrazol-4-yl)phenyl]methyl]-N-[(1S,2S)-2-hydroxycyclohexyl]thieno[3,2-b]pyridine-5-carboxamide]
20 |  | 6.03 | 50.2 | Cn1cc(-c2cc(F)c(Cc3cc(C(=O)N[C@H]4CCC[C@@H]4O)nc4ccsc34)c(F)c2)cn1 [Compound 58, 7-[[2,6-difluoro-4-(1-methylpyrazol-4-yl)phenyl]methyl]-N-[(1S,2S)-2-hydroxycyclopentyl]thieno[3,2-b]pyridine-5-carboxamide]
21 |  | 2.84 | 88.5 | Cn1cc(-c2cc(F)c(Cc3cc(C(=O)N[C@H]4CCOC[C@@H]4O)nc4ccsc34)c(F)c2)cn1 [Compound 59, 7-[[2,6-difluoro-4-(1-methylpyrazol-4-yl)phenyl]methyl]-N-[(3R,4S)-3-hydroxytetrahydropyran-4-yl]thieno[3,2-b]pyridine-5-carboxamide]
22 |  | 5.6 | 71.6 | Cn1cc(-c2cc(F)c(Cc3cc(C(=O)N[C@H]4COCC[C@@H]4O)nc4ccsc34)c(F)c2)cn1 [Compound 60, 7-[[2,6-difluoro-4-(1-methylpyrazol-4-yl)phenyl]methyl]-N-[(3S,4S)-4-hydroxytetrahydropyran-3-yl]thieno[3,2-b]pyridine-5-carboxamide]

Reference: US11111251B2, “Positive allosteric modulators of the muscarinic acetylcholine receptor M1” (Vanderbilt University, priority 2016, dated 2021)
